Patent publication US20260335282A1, “NOVEL 3-ARYLIDENE-2-INDOLINONE DERIVATIVES FOR THERAPEUTIC USE” (ISTANBUL UNIVERSITESI REKTORLUGU, priority 2022, published 2026)
Like-named read-outs stand apart in the source and are kept apart here.

Assays:
FGFR1 = conditions: Liang et al. 2012; cited from earlier work
primary tumor = conditions: combination with docetaxel, Patyna et al. 2006; cited from earlier work
CAKI-1 cells = assay: MTT cytotoxicity, kidney cancer cells CAKI-1; type: cell-based, human
In short: (§1)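 Read-out is MTT formazan absorbance at 570 nm with 630 nm reference, after 4 h with 5 mg/ml MTT and DMSO solubilisation. Treatment at 0.1, 1, 5 and 10 μM lasted 48 and/or 72 h; viability is relative to DMSO-matched controls, and IC50 values derive from dose-response curves.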

A549 cells = assay: MTT cytotoxicity, lung cancer cells A549; type: cell-based, human
In short: as §1

MDA-MB-231 cells = assay: MTT cytotoxicity, breast cancer cells MDA-MB-231; type: cell-based, human; conditions: MTT, no * mark (incubation time not given)
In short: as §1

A498 cells [1] = assay: MTT cytotoxicity, kidney cancer cells A498; type: cell-based, human; conditions: for IC50: MTT
In short: as §1

A498 cells [2] = assay: Apoptosis/necrosis detection, Annexin V/PI flow cytometry, A498; type: cell-based, human; conditions: A498
Procedure: (§2) After incubation with 2-indolinone compounds (IC50 μM concentration; 48 and/or 72 hours), cells are washed twice with PBS and the cell pellet is suspended in Annexin V binding buffer. After this incubation, cells are incubated with FITC-conjugated Annexin V and propidium iodine staining solution for 15 minutes in the dark and at room temperature. Then, cells are analyzed by flow cytometry (Beckman coulter, Navios) (Wlodkowic, D., Skommer, J, Darzynkiewicz, Z. 2009. Flow cytometry-based apoptosis detection, Methods Mol Biol., 559, 1-14).

MCF-7 cells = assay: MTT cytotoxicity, breast cancer cells MCF-7; type: cell-based, human; conditions: MTT
In short: as §1

MIAPaCa-2 cells [3] = assay: MTT cytotoxicity, pancreas cancer cells MIAPaCa-2; type: cell-based, human
In short: (§3)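 Cells were seeded at 5000 per well and treated next day with compound at 0.1, 1, 5 and 10 μM (final) for 48 and/or 72 h, with matched DMSO controls. MTT was added for 4 h and formazan was dissolved in DMSO and read at 570/630 nm. % viability against control gave IC50 from dose-response curves.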

HCT-116 cells = assay: MTT cytotoxicity, colon cancer cells HCT-116; type: cell-based, human
In short: as §3

HT-29 cells = assay: MTT cytotoxicity, colon cancer cells HT-29; type: cell-based, human; conditions: MTT
In short: as §3

HUVEC cells = assay: MTT cytotoxicity, healthy cells HUVEC; type: cell-based, human; conditions: for IC50: MTT
In short: as §1

MIAPaCa-2 cells [4] = assay: Apoptosis/necrosis detection, Annexin V/PI flow cytometry, MiaPaca-2; type: cell-based, human
Procedure: as §2

[5] = test system: general tyrosine kinase activity in A498 kidney cancer cells; assay: General tyrosine kinase activity (ELISA) in A498 cells; type: cell-based, human; conditions: 72 h, IC50 concentration
Procedure: Takara Universal Tyrosine Kinase Assay Kit is used to determine the effects of 11 2-indolinone compounds (Y1, Y2, Y3, Y4, Y5, Y8, […], […], Y21, Y23, 20C, 22C) on general tyrosine kinase activity in cancer cells. Cells are seeded in 6-well plates (4.10^5 cells/well) and the IC50 concentration of each selected molecule is performed to the cells for 48 or 72 hours. Cells in the control group are incubated with medium only. At the end of the incubation period, the cells in each well are washed with PBS and cells are removed from the wells using a cell scraper via 1 ml of the extraction buffer in the kit. The cell lysate is transferred to ependorf tubes and centrifuged at 10.000 g for 10 minutes at +4° C. and the supernatant is used as a sample for activity determination. After the extracts obtained from the control and experimental groups are diluted 1:25, 40 μl extracts is transferred to two wells in the 96-well plate in the kit. In addition, the standard solution in the kit is diluted according to the kit instructions and each concentration is transferred 40 μl into three wells. 10 μl of 40 mM ATP-2Na solution is added to all wells and the plate is incubated at 37° C. for 30 minutes. […] The reaction is finished by adding 100 μl of stop solution to each well and the optical density in each well is measured at 405 nm with a microplate reader (BioTek, USA). The tyrosine kinase activity in each sample is calculated from the standard curve obtained from the absorbance values of the standard solutions with the kit (Chan W Y, Lau P M, Yeung K W, Kong S K. The second generation tyrosine kinase inhibitor dasatinib induced eryptosis in human erythrocytes—An in vitro study. Toxicol Lett. 2018; 295:10-21). […]
The effects of 11 2-indolinone compounds (Y1, Y2, Y3, Y4, Y5, Y8, Y14, Y21, Y23, 20C and 22C) having the structure of formula (5), which are prominent with their cytotoxicity in A498, MIAPaCa-2 and HCT-116 cancer cell lines and nontoxic properties in healthy cells, on general tyrosine kinase activity in cancer cells are determined.

MCF-10F/Beas2b cells = assay: MTT cytotoxicity, healthy cells MCF-10F/Beas2b; type: cell-based, human; conditions: MCF-10F/Beas2b vs breast or kidney cancer cells; cancer line not given
In short: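 5000 cells/well; compounds 0.1–10 μM (0.1, 1, 5, 10 μM), 48 and/or 72 h. MTT 5 mg/ml, 4 h; formazan in DMSO; OD 570/630 nm. % viability vs matched-DMSO control; IC50 from dose-response curves; cell-free MTT+compound blanks.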

[6] = no * mark (incubation time not specified)
[7] = MTT, no * mark (incubation time not specified)

Cc1c[nH]c(/C=C2\C(=O)Nc3ccccc32)c1CCC(=O)O [SU5402, 3-[4-methyl-2-[(Z)-(2-oxo-1H-indol-3-ylidene)methyl]-1H-pyrrol-3-yl]propanoic acid]
inhibitory activity against FGFR1 vs SU4984 (FGFR1): better inhibitory activity against FGFR1 than SU4984

Cc1[nH]c(/C=C2\C(=O)Nc3ccc(F)cc32)c(C)c1C(=O)NCC(O)CN1CCOCC1 (centres unmarked) [SU14813]
inhibition of primary tumor growth and survival (primary tumor): significantly improve both inhibition of primary tumor growth and survival of tumor-bearing mice

CCN(CC)CCNC(=O)c1c(C)[nH]c(/C=C2\C(=O)Nc3ccc(F)cc32)c1C [Sunitinib malate, reference compound]
IC50 (CAKI-1 cells; Homo sapiens, CAKI-1, no * mark (incubation time not given)): 5.13 µM
IC50 (A549 cells; Homo sapiens, A549, no * mark (incubation time not given)): > 10 µM
IC50 (MDA-MB-231 cells; Homo sapiens, MDA-MB-231, read-out: IC50, MDA-MB-231 (breast)): > 10 µM
IC50 (A498 cells [1]; Homo sapiens, A498, 72 h, *: effective 72 hours after incubation): 3.46 µM
IC50 (A498 cells [1]; [6]): 3.71 µM
IC50 (A498 cells [1]; no * mark (incubation time not specified), listed as sunitinib malate): > 10 µM
necrosis compared to control (A498 cells [2]): no increase or decrease
viability, early apoptosis and late apoptosis compared to control (A498 cells [2]; Y3 at IC50, sunitinib malate 10 μM): 10 μM dose is found to be the most significant
IC50 (MCF-7 cells; Homo sapiens, MCF7, no * mark (incubation time not given)): 9.78 µM
IC50 (MIAPaCa-2 cells [3]; Homo sapiens, MIA PaCa-2, 72 h, MTT, *: effective 72 hours after incubation): 4.03 µM
IC50 (MIAPaCa-2 cells [3]; Homo sapiens, MIA PaCa-2, MTT, no * mark (incubation time not given)): 0.61 µM
IC50 (MIAPaCa-2 cells [3]; [7]): 1.18 µM
IC50 (HCT-116 cells; Homo sapiens, HCT-116, no * mark (incubation time not given)): 1.78 µM
IC50 (HT-29 cells; Homo sapiens, HT-29, no * mark (incubation time not given)): 2.94 µM
IC50 (HUVEC cells; Homo sapiens, HUVEC, no * mark (incubation time not given)): 2.94 µM
necrosis compared to control (MIAPaCa-2 cells [4]; MiaPaca-2): did not cause necrosis
apoptosis (early and late) compared to control (MIAPaCa-2 cells [4]; MiaPaca-2, IC50 values): increase in apoptosis at IC50 values was statistically significant

Cn1cc(/C=C2\C(=O)N(Cc3ccccc3)c3ccc(Cl)cc32)c2ccccc21 [Y23]
IC50 (CAKI-1 cells; [6]): 4.98 µM
general tyrosine kinase activity compared to control [5]: did not cause a significant change
IC50 (A549 cells; [6]): > 10 µM
IC50 (MDA-MB-231 cells; read-out: IC50, MDA-MB-231 (breast)): 4.72 µM
selectivity index (A498 cells [1]; MCF-10F/Beas2b vs A498): > 11
IC50 (A498 cells [1]; [6]): 0.89 µM
IC50 (MCF-7 cells; [6]): 4.9 µM
IC50 (MIAPaCa-2 cells [3]; [7]): > 10 µM
IC50 (HCT-116 cells; [6]): 1.62 µM
IC50 (HT-29 cells; [6]): 4.18 µM
Selectivite Index (SI), MCF-10F/Beas2b (Table 1) (MCF-10F/Beas2b cells): > 11.23
Selectivite Index (SI), HUVEC (Table 1) (HUVEC cells; HUVEC vs breast or kidney cancer cells, cancer line not given): 4.70
IC50 (HUVEC cells; [6]): 4.18 µM
